Reference: patent publication US20120277265A1, “NOVEL POLYQUINOLINE DERIVATIVES AND THE THERAPEUTIC USE THEREOF” (CENTRE NATIONAL DE LA RECHERCHE SCIENTIFIQUE (C.N.R.S.), priority 2005, published 2012)

Tests used:
[1] = 25° C., cited from earlier work; for log K1 (stability constant for the MLc species), Cu(II): ionic strength 0.1-0.2, metal ion to chelator 1/1; for log K2 (stability constant for the M(Lc)2 species), Cu(II): ionic strength 0.1-0.2
[2] = Stability constants of competing chelators for Cu(II) (NIST / Sillen-Martell; log Kapp by Eq. 1-2); format: binding; conditions: at pH = 7.4, by Eq. 1 and 2
Source text: Department of Commerce) and […]

[3] = Stability constants of competing chelators for Zn(II) (NIST / Sillen-Martell; log Kapp by Eq. 1-2); conditions: for log Kapp of comparison chelators for Zn(II): comparison chelators of b563
Source text: log Kapp=log K-log α (Eq. 1)
α=[H^+]^n/(Ka1×Ka2×Ka3× . . . Kan)+[H^+]^n-1/(Ka1×Ka2×Ka3× . . . Kan-1)+ . . . +[H^+]/Ka1+1 (Eq. 2)

[4] = Number of ZnCl2 equivalents for the ligand to be entirely in the form of Zn(II) complex; format: binding; conditions: competition with the tris buffer and the DMSO
[5] = Competition reaction between ligand (Ls), ZnCl2 and competing chelator (Lc), UV-visible; affinity constants; format: binding; conditions: Ls/ZnCl2/Lc 1/1/1 at 15 μM; solvent per ligand as in Table 3
Experimental: An organic solvent (CH3OH, dioxane or DMSO) was added in order to achieve good solubility of all the ligands and metal complexes in the concentrations used in these experiments.
As the concentration [MLs]=x % of C is measured on the UV-visible spectra, the concentrations [Ls]=(1−x) % of C, [MLc]=(1−x) % of C and [Lc]=x % of C can be deduced therefrom and:
In these conditions, [MLs]=[MLc]; [MLs]+[Lc]=Y, y≧50 and:
When log Ks 6, these equations are not used since the percentages of metal ion which is free in the solution or chelated by the solvent or the buffer are not negligible.

[6] = Competition reaction between ligand (Ls), CuCl2 and competing chelator (Lc), UV-visible; affinity constants
Experimental: An organic solvent (CH3OH, dioxane or DMSO) was added in order to achieve good solubility of all the ligands and metal complexes in the concentrations used in these experiments. Monitoring has shown that all the ligands and metal complexes examined yield results corresponding to the Beer-Lambert Law in the experimental conditions used.
Lc competing chelators were selected to provide a range of stability constants for the metal ion M presenting intervals of approximately one or two log units, as well as to make it possible for each competition experiment to quantify one of the Ls, MLs, Lcc or MLc species with a UV-vis spectrum wavelength without contaminating the three other species (FIG. 7). […] As the concentration [MLs]=x % of C is measured on the UV-visible spectra, the concentrations [Ls]=(1−x) % of C, [MLc]=(1−x) % of C and [Lc]=x % of C can be deduced therefrom and:

[7] = UV-visible spectrophotometric titration with CuCl2 (metal/ligand stoichiometry); format: binding; conditions: 15 μM ligand; Tris-HCl buffer pH 7.4/organic solvent, per ligand as in Table 3 column Solvent
Experimental: (§1) An organic solvent (CH3OH, dioxane or DMSO) was added in order to achieve good solubility of the ligands and metal complexes in the concentrations used in these experiments. Exact proportions of the organic solvent/buffer mixture are specified for each UV-visible characterisation of the different ligands or metal complexes.
(§2) Aliquot portions of concentrated CuCl2 or ZnCl2 solutions (M) are added to a 15 μM ligand solution so as to induce only negligible variations in volume. After each addition, changes in absorption spectra are observed immediately and are consistent between two additions, which corresponds to a rapid complexing process. The exact absorption values relating to each ligand and the copper(II) or zinc(II) complexes thereof are detailed hereinafter in the Experimental part (in the Synthesis part for ligands and hereinafter for the metal complexes).
(§3) The stoichiometry of the different ligands (L) for Cu(II) or ZN(II) have therefore been determined spectrophotometrically by metal ion titration. In this example, for an M/L ratio increasing from 0 to 1, π→π* with transition, centred at 251 nm for the free ligand, is shifted to a lower energy with a concomitant appearance of an absorption band in the visible region of the spectrum (λmax to 383 nm), which is probably the result of an MLCT transition. For greater M/L ratios, no additional change in the UV-visible absorption spectra is observed.

[8] = UV-visible spectrophotometric titration with ZnCl2 (metal/ligand stoichiometry); format: binding; conditions: 15 μM ligand; Tris-HCl buffer pH 7.4/organic solvent, per ligand as in Table 3 column Solvent
Experimental: as §1, §2, §3

[9] = target: T1, Aβ1-42 (Homo sapiens, UniProt P05067); assay: Inhibition of the precipitation of Aβ1-42 by the addition of ligand (Micro BCA assay of soluble/aggregated peptide); format: biochemical; conditions: Aβ1-42 5 μM, pH 7.4; for CuCl2 % soluble Aβ: 20 μM CuCl2, 1 h 37° C. then 1 h with 200 μM ligand; for FeCl3 % soluble Aβ: 20 μM FeCl3, 1 h 37° C. then 1 h with 200 μM ligand; for ZnCl2 % soluble Aβ: 20 μM ZnCl2, 1 h 37° C. then 1 h with 200 μM ligand; for without metal % soluble Aβ: no metal salt, 1 h 37° C. then 1 h with 200 μM ligand
T1 construct: The β-amyloid peptide Aβ1-42 (Aβ1-42) was synthesised, purified (to a purity greater than 95%); made in house; host or cells: chemical peptide synthesis (no expression host)
T1 sequence (P05067 672-713): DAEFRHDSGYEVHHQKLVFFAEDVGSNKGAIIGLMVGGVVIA
Experimental: After a further hour of incubation, the reaction mixture is centrifuged.
Before use, the water [of Milli-Q Millipore quality] and all buffer solutions were treated on Chelex-100 resin (Biorad) (5 mg/ml) and filtered through 0.2 μm filters (Whatman) to remove potential traces of metal ions or particles.
Working solutions of the peptide were prepared by solubilising 1 mg of lyophilised peptide in 500 μl of water and 500 μl of an aqueous NaOH solution pH=12.0, while stirring in a Thermomixer Comfort (Eppendorf). The peptide preparations are subsequently centrifuged for 10 minutes at 9,000 rpm and the supernatant is used as an “Aβ stock” solution. The concentration of peptide in the “Aβ stock” is determined immediately by colorimetric assay using a Micro BCA Protein Assays kit (Pierce) from standard ranges produced using known amounts of bovine serum albumin (BSA) then the Aβ1-42 peptide solution is aliquoted and frozen rapidly in liquid nitrogen prior to being stored at −20° C. until being used.
Salts are generated by adding one hydrochloric acid equivalent per nitrogen group equivalent of the ligand dissolved in DMSO. After evaporation of the solvent, these salts are dissolved at the desired concentration with DMSO and kept at −20° C. until they are used.
The protocol was established from works by: C. S. Atwood et al., J. Neurochem. […] The final concentrations are given. 500 μl of Aβ1-42 (5 μM is set to aggregate in 20 mM Tris-HCl buffer containing 150 mM NaCl (pH=7.4) for 1 hour at 37° C. while stirring at 1,400 rpm in the absence or presence of metal ions: CuCl2, ZnCl2 or FeCl3 (20 μM). Then 50 pi of ligand to be tested (200 μM) dissolved in DMSO are added and the samples are incubated for 1 further hour at 37° C. while stirring at 1,400 rpm. The samples without ligand also receive 50 μl of DMSO. The samples (final volume=550 μ) are subsequently centrifuged for 20 min at 9,000 rpm, and 500 μl of supernatant are removed. The tube containing the precipitation pellet then receives 450 μl of assay buffer/DMSO mixture (91/9, v/v). […] Quantification is carried out on the basis of standard BSA ranges. The amounts of Aβ1-42 actually contained in the pellet and the supernatant are obtained after a correction due to the presence of a residual portion of supernatant in the pellet-containing fraction.
For the control experiments with derivatives comprising a single quinoline residue, […] of ligand were added because complexes of type L2Cu are conventionally used in these cases.

[10] = Determination of log D7.4 (1-octanol / Tris-HCl buffer); format: physicochemical; conditions: 1-octanol / 20 mM Tris-HCl buffer containing 150 mM NaCl (pH = 7.4) (1/1, v/v)
Experimental: The ligand (2.0 mg) is dissolved in 2 ml of 1-octanol then 2 ml of 20 mM Tris-HCl buffer, pH=7.4 containing 150 mM NaCl are added. After mixing in a vortex for 3 min at ambient temperature, followed by centrifugation for 5 min at 9,000 rpm, the concentration of the ligand in each phase is determined by UV-visible spectrophotometry. The 1-octanol fractions are thus redivided until reproducible values of coefficient of division of obtained. This coefficient is expressed as the decimal logarithm of [(the concentration of ligand contained in the 1-octanol phase)/(the concentration of ligand contained in the buffered aqueous phase)]=log D7.4. Measurements were taken three times.

[11] = Hydrogen peroxide produced by Aβ1-42 in the presence of CuCl2, ascorbate, air and ligand (Amplex Red H2O2/HRP); format: biochemical; conditions: ligand 1 eq/Cu(II) (0.4 μM); CuCl2 0.4 μM, ascorbate 10 μM, air
Experimental: (§4) FIG. 11: Variation in H2O2 production by copper complexes of Aβ1-42 peptide as a function of the Cu(II)/Aβ stoichiometry. Experiments are carried out for 5 minutes in a sodium phosphate buffer (pH=7.4) in the presence 0.4 μM CuCl2, 10 μM ascorbate and air with or without 0.4 μM of 3 or 7. The H2O2 released is quantified by means of an Amplex-Red H2O2/HRP Assay kit.
(§5) The final concentrations are given. The reactions were carried out in the dark in mM sodium phosphate buffer (pH=7.4). Aβ1-42 (0.2 μM) and CuCl2 (0.4 μM) were pre-incubated for 1 hour at 37° C. while stirring at 1,400 rpm in 375 μl of buffer. Then 2 μl of a solution of ligand to be investigated (0.2; 0.4 or 0.8 μM) in DMSO were added. After incubation for a further hour, 2 μl of an aqueous sodium ascorbate solution (10 μM) were added and incubation was continued for 5 min while stirring. The amount of H2O2 produced is then quantified using an Amplex Red H2O2/HRP Assay Kit (Molecular Probes) while adding a volume of assay reagent to the samples, then incubating them for 1 hour at 37° C. while stirring at 500 rpm. […] Quantification is carried out on the basis of standard curves obtained with known amounts of H2O2.
(§6) The figures in the tables correspond to the amount of H2O2 (expressed in nanomoles) added using an Amplex Red H2O2/HRP Assay kit.

[12] = target: T2, copper complexes of Aβ1-42 peptide (Homo sapiens, UniProt P05067); assay: as above; format: biochemical; conditions: for amount of H2O2, 0.2 μM Aβ1-42 Cu/Aβ = 2 / amount of H2O2, 0.5 μM Aβ1-42 Cu/Aβ = 0.75: ligand 1 eq/Cu(II) (0.4 μM), CuCl2 0.4 μM, ascorbate 10 μM, air
T2 construct: The β-amyloid peptide Aβ1-42 (Aβ1-42) was synthesised, purified (to a purity greater than 95%); made in house; host or cells: chemical peptide synthesis (no expression host)
T2 sequence (P05067 672-713 limits assumed, one chain of several): as the sequence (P05067 672-713) above
Experimental: as §4, §5, §6

[13] = Ls/CuCl2/Lc 1/1/1 at 15 μM, solvent per ligand as in Table 3
[14] = mixture of Ls (15 μM, 1 equivalent) and CuCl2 (1/1, mol/mol)

Row | Structure (SMILES) | log K2 (stability constant for the M(Lc)2 species), Cu(II) [1] | log K1 app, Cu(II) [2] | percentage of ZnLs species at equilibrium, competing ligand EDTA [5] [%] | percentage of the CuLs species at equilibrium, competing ligand EDTA [6, 13] [%] | Complex observed by titration with Cu^II (observed L/Cu(II) stoichiometry) [7] | Complex observed by titration with Zn^II (observed L/Zn(II) stoichiometry) [8] | CuCl2 % soluble Aβ [9] [%] | FeCl3 % soluble Aβ [9] [%] | ZnCl2 % soluble Aβ [9] [%] | without metal % soluble Aβ [9] [%] | amount of H2O2, without Aβ1-42 [11] [nmol] | amount of H2O2, 0.2 μM Aβ1-42 Cu/Aβ = 2 [12] [nmol] | amount of H2O2, 0.5 μM Aβ1-42 Cu/Aβ = 0.75 [12] [nmol] | further results
1 | c1ccc(-c2ccccn2)nc1 [biPy, 2,2′-bipyridine] | 5.5 | 8.1 | – | – | – | – | – | – | – | – | – | – | – | log K1 (stability constant for the MLc species), Cu(II) [1]: 8.1; log Kapp of comparison chelators for Zn(II) [3]: ≈ 5; number of ZnCl2 equivalent for 15 μM of ligand to be entirely in the form of Zn(II) complex [4]: 250 eq ZnCl2
2 | NCCN [EDA, ethylenediamine] | 9.1 | 7.8 | – | – | – | – | – | – | – | – | – | – | – | –
3 | Oc1c(I)cc(Cl)c2ccc(CCc3ccc4c(Cl)cc(I)c(O)c4n3)nc12 [Compound 9, 2,2′-(1,2-Ethanediyl)-bis(5-chloro-7-iodo-8-hydroxyquinoline)] | – | – | 65 | 60 | LCu^II(1/1) | LZn^II(1/1) | 19 | 38 | 47 | 36 | 0.66 | 0.82 ± 0.08 | 0.82 | percentage of ZnLs species at equilibrium, competing ligand NTA [5]: 100%; percentage of ZnLs species at equilibrium, competing ligand Trien [5]: 100%; percentage of the CuLs species at equilibrium, competing ligand Dien [6, 13]: 100%; percentage of the CuLs species at equilibrium, competing ligand Tetren [6, 13]: 0%; percentage of the CuLs species at equilibrium, competing ligand Trien [6, 13]: 45%; number of Lc equivalents making it possible to form 50% of CuLs, Lc = Trien [6, 14]: 0.75 eq; logD at 3 min [10]: 5.6 ± 0.5
4 | O=C(O)CN(CCOCCOCCN(CC(=O)O)CC(=O)O)CC(=O)O [EGTA, ethylenebis(oxyethylenenitrilo)-tetraacetic acid] | – | – | – | – | – | – | – | – | – | – | – | – | – | log K1 app, Zn(II) ([3]; at pH = 7.4, by Eq. 1 and 2): 9.4
5 | O=C(O)CN(CCO)CC(=O)O [HIDA, N-(2-hydroethyl)iminodiacetic acid] | – | 10.5 | – | – | – | – | – | – | – | – | – | – | – | log K1 (stability constant for the MLc species), Cu(II) [1]: 11.8
6 | Oc1ccc(Cl)c2ccc(CCc3ccc4c(Cl)ccc(O)c4n3)nc12 [Compound 8, 2,2′-(1.2-Ethanediyl)-bis(5-chloro-8-hydroxyquinoline 8)] | – | – | 30 | 40 | LCu^II(1/1) | LZn^II(1/1) | 36 | 41 | 58 | 59 | 0.66 | 0.89 ± 0.09 | 0.64 | number of Lc equivalents making it possible to form 50% of CuLs, Lc = EDTA [6, 14]: 0.65 eq; log D7.4 [10]: 4.2 ± 0.1
7 | NCCNCCN [Dien, diethylenetriamine] | 5.0 | 11.8 | – | – | – | – | – | – | – | – | – | – | – | –
8 | Oc1cccc2ccc(CCc3ccc4cccc(O)c4n3)nc12 [Compound 7, 2,2′-(1,2-Ethanediyl)-bis(8-hydroxyquinoline)] | – | – | 55 | 55 | LCu^II(1/1) | LZn^II(1/1) | 35 | 40 | 60 | 59 | 0.75 | 0.89 ± 0.07 | 0.68 | number of Lc equivalents making it possible to form 50% of CuLs, Lc = EDTA [6, 14]: 1.1 eq; logD at 3 min [10]: 3.5 ± 0.1; H2O2 production as a function of the Cu/Aβ1-42 ratio ([12]; FIG. 11, 1 equivalent of ligand per Cu(II) (0.4 μM), Aβ1-42 0.2 to 0.53 μM): virtually inhibit H2O2 production
9 | c1cnc2c(c1)ccc1cccnc12 [1,10-phenanthroline] | – | – | – | – | – | – | – | – | – | – | – | – | – | log Kapp of comparison chelators for Zn(II) [3]: 6.3; number of ZnCl2 equivalent for 15 μM of ligand to be entirely in the form of Zn(II) complex [4]: 50 eq ZnCl2
